pIC50: −log10 of the molar value.
System: not given
Test: not given
Conditions: not given

| Structure (SMILES) | melting point [°C] |
| --- | --- |
| CNCCC[C@@H](Oc1cc(Cl)ccc1C#N)c1ccccc1.O=C(O)C(=O)O [Example 1, 4-Chloro-2-[[(1R)-4-(methylamino)-1-phenylbutyl]oxy]benzonitrile ethanedioate] | 167 to 169 |
| CCN(CCO)CCC[C@@H](Oc1cc(Cl)ccc1C#N)c1ccccc1.Cl | 141 to 144 |
| N#Cc1ccc(Cl)cc1O[C@H](CCCN1CCCC1)c1ccccc1.O=C(O)C(=O)O [Example 3, 4-Chloro-2-[[(1R)-1-phenyl-4-(1-pyrrolidinyl)butyl]oxy]-benzonitrile ethanedioate] | 157 to 158 |
| CNCCCC(Oc1cc(Cl)c(F)cc1C#N)c1ccccn1.O=C(O)C(=O)O (stereo not shown) [Example 32, 4-Chloro-5-fluoro-2-[4-(methylamino)-1-(2-pyridinyl)butoxy]benzonitrile oxalate] | 169 to 170 |
| CNCC[C@@H](Cc1ccccc1)Oc1cc(Cl)ccc1Cl.O=C(O)C(=O)O [Example 2, R-γ-(2,5-Dichlorophenoxy)-N-methyl-benzenebutanamine ethanedioate] | 167 to 169 |
| CNCCCC(Oc1cc(Cl)ccc1C#N)c1ccncc1.O=C(O)C(=O)O (stereo not shown) [Example 37, 4-Chloro-2-[4-(methylamino)-1-(4-pyridinyl)butoxy]benzonitrile oxalate] | 169 to 172 |
| N#Cc1ccc(Cl)cc1O[C@H](CCCNCc1cccnc1)c1ccccc1.O=C(O)C(=O)O [Example 6, 4-Chloro-2-[[(1R)-1-phenyl-4-[(3-pyridinylmethyl)amino]butyl]oxy]-benzonitrile ethanedioate] | 188 to 189 |
| CNCC[C@@H](Cc1ccc(F)cc1)Oc1cc(Cl)ccc1Cl [Example 15, R-γ-(2,5-Dichlorophenoxy)-4-fluoro-N-methyl benzenebutanamine] | 160 to 162 |
| N#Cc1ccc(Cl)cc1O[C@H](CCCNC1CC1)c1ccccc1.O=C(O)C(=O)O [Example 10, 4-Chloro-2-[[(1R)-4-(cyclopropylamino)-1-phenylbutyl]oxy]-benzonitrile ethanedioate] | 173 to 174 |
| CNCC[C@@H](Cc1ccc(C)cc1)Oc1cc(Cl)ccc1Cl.O=C(O)/C=C/C(=O)O [Example 17, R-γ-(2,5-Dichlorophenoxy)-N,4-dimethyl-benzenebutanamine fumarate] | 126 to 130 |
| N#Cc1ccc(Cl)cc1O[C@H](CCCNCCCO)c1ccccc1.O=C(O)C(=O)O [Example 11, 4-Chloro-2-[[(1R)-4-[(3-hydroxypropyl)amino]-1-phenylbutyl]oxy]-benzonitrile ethanedioate] | 111 to 112 |
| CNCCCC(Oc1cc(Cl)ccc1C#N)c1ccccn1.O=C(O)C(=O)O (stereo not shown) [Example 31, 4-Chloro-2-[4-(methylamino)-1-(2-pyridinyl)butoxy]benzonitrile oxalate] | 170 to 171 |
| C[C@H](CO)NCCC[C@@H](Oc1cc(Cl)ccc1C#N)c1ccccc1.O=C(O)C(=O)O [Example 12, 4-Chloro-2-[[(1R)-4-[[(1R)-2-hydroxy-1-methylethyl]amino]-1-phenylbutyl]oxy]-benzonitrile ethanedioate] | 163 to 164 |
| N#Cc1ccc(Cl)cc1O[C@H](CCCNCCO)c1ccccc1.O=C(O)C(=O)O [Example 9, 4-Chloro-2-[[(1R)-4-[(2-hydroxyethyl)amino]-1-phenylbutyl]oxy]-benzonitrile ethanedioate] | 158 to 159 |
| C[C@@H](CO)NCCC[C@@H](Oc1cc(Cl)ccc1C#N)c1ccccc1.O=C(O)C(=O)O [Example 13, 4-Chloro-2-[[(1R)-4-[[(1S)-2-hydroxy-1-methylethyl]amino]-1-phenylbutyl]oxy]-benzonitrile ethanedioate] | 186 to 187 |

Biological target: T1, nitric oxide synthase (induced, from murine macrophage cell line J774A-1) (Mus musculus, UniProt P29477)
T1 construct: The reaction is started by adding 50 μl of cell lysate (prepared as above); endogenous in cells; host or cells: J774A-1 murine macrophage cell line, induced with LPS and IFN-gamma; crude cell lysate
Test: Screen 1: nitric oxide synthase inhibition, 3H-L-arginine to 3H-L-citrulline conversion, lysate of induced J774A-1 cells
Assay type: biochemical
Conditions: standard to verify the procedure, 1 hour at room temperature, read-out: IC50 (50% inhibitory concentration)
Procedure: The activity of compounds of formula (I), or a pharmaceutically acceptable salt, enantiomer or racemate thereof, may be screened for nitric oxide synthase inhibiting activity by a procedure based on that of Förstermann et al., Eur. J. Pharm., 1992, 225; 161-165. Nitric oxide synthase converts ^3H-L-arginine into ^3H-L-citrulline which can be separated by cation exchange chromatography and quantified by liquid scintillation counting.
Enzyme is prepared, after induction, from the cultured murine macrophage cell line J774A-1 (obtained from the laboratories of the Imperial Cancer Research Fund). J774A-1 cells are cultured in Dulbeccos Modified Eagles Medium (D[MEM) supplemented with 10% foetal bovine serum, 4 mM L-glutamine and antibiotics (100 units/ml penicillin G, […] streptomycin & […] amphotericin B). Cells are routinely grown in […] flasks containing 35 ml medium kept at 37° C. and in a humidified atmosphere containing 5% CO2. […]
Labelled L-citrulline is separated from labelled L-arginine using Dowex AG-50W. […] After allowing the samples to dry the L-citrulline is quantified by scintillation counting.
In a typical experiment basal activity is 300 dpm per 75 μl sample which is increased to 1900 dpm in the reagent controls. […] Compounds are tested at a range of concentrations and from the inhibitions obtained IC50 values are calculated. […]

| Structure (SMILES) | pIC50 |
| --- | --- |
| N=C(N)NN [aminoguanidine] | 5.00 |
